Experimental data as given in patent publication US9416115B2, “Fused heterocyclic compounds as ion channel modulators” (Gilead Sciences, Inc., priority 2013, dated 2016).
Read-outs that look alike come from different tables or passages of the source.

What was measured:
[1] = biological target: T1, wild-type human cardiac sodium channel, hNav1.5 (Homo sapiens, UniProt Q14524); assay: Late INa screening assay (QPatch whole cell patch clamp, Tefluthrin-induced late current); type: cell-based; settings: HEK293 hNav1.5, percent block of late INa
How it was run: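 HEK293 cells stably expressing hNav1.5 without beta subunits were whole-cell patch clamped at 23-25 °C, stepping from −120 to −20 mV for 250 ms at 0.1 Hz. Late current (240–265 ms) was induced with 10 μM Tefluthrin, and compounds were added typically at 0.3 or 1 μM. Percent block was taken against 0 Na baseline with rundown correction.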

[2] = Plasma concentration in the rabbit ischemia study; type: in vivo, New Zealand rabbits; settings: iv infusion targeted to 1 uM plasma
Procedure: Rabbits were anesthetized with ketamine (35 mg/kg) and xylazine (5 mg/kg) intramuscular injection (im). A tracheotomy was performed and the trachea was intubated with an endotracheal tube. The animal was ventilated with room air supplemented with oxygen using a pressure control animal ventilator (Kent Scientific Corp., Torrington, Conn.) at a respiratory rate of 40 strokes/min and peak inspiration pressure of 10 mmH2O, which was adjusted to keep blood gases and pH within the physiological range (iSTAT clinic analyzer, Heska Corp.; Waukesha, Wis.). The left femoral artery was cannulated for the measurement of blood pressure (BP). Blood samples were also withdrawn from femoral artery. The right external jugular vein was cannulated for drug/vehicle administration. Needle electrodes were inserted subcutaneously into the limbs for recording of the surface electrocardiogram (ECG).
Reference electrodes were placed in the open incision of the neck. The body temperature of the animal was monitored via a rectal thermometer and maintained at 37-40° C. by adjusting the surface temperature of the surgical table. Regional ischemia (15 min) was induced by ligating the LAD followed by 15 min of reperfusion caused by releasing the ligation. The heart was excised at the end of the experiment and the LAD was re-ligated. The ischemic area was visualized by perfusing the heart with 1% Evans blue in saline and calculated as a percentage of total ventricular weight. Rabbits with ischemic area less than 10% or larger than 25% were excluded from the analysis. Animals were randomly assigned to vehicle and test compound groups. Test compounds were dissolved in 15% NMP, 10% Solutol and 75% de-ionized water (dH2O). Test compounds were given as an iv infusion at a rate targeted to reach plasma concentrations of 1 μM. After 30 min of compound administration the heart was subjected to 15 min of ischemia followed by 15 min of reperfusion.

[3] = biological target: T1, wild-type human cardiac sodium channel, hNav1.5; assay: Peak INa screening assay (tonic block and use-dependent block); type: cell-based
How it was run: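 Whole-cell automated patch clamp, 23-25° C, on hNav1.5 alpha-only HEK293 cells with Na+ lowered to 40 mM by choline. Block measured after two additions of 1 or 3 μM compound and 200 s wait: tonic at 0.1 Hz, use-dependent at 50th pulse (−20 mV, 20 ms, 3 Hz) from −100 mV, relative to drug-free, rundown corrected.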

[4] = tonic block of Peak INa, 0.1 Hz, holding -100 mV, read-out: Peak TB 3 uM
[5] = use-dependent block of Peak INa, 3 Hz, pulse 50, read-out: Peak UDB 3 Hz 3 uM

T1 sequence (Q14524 whole entry): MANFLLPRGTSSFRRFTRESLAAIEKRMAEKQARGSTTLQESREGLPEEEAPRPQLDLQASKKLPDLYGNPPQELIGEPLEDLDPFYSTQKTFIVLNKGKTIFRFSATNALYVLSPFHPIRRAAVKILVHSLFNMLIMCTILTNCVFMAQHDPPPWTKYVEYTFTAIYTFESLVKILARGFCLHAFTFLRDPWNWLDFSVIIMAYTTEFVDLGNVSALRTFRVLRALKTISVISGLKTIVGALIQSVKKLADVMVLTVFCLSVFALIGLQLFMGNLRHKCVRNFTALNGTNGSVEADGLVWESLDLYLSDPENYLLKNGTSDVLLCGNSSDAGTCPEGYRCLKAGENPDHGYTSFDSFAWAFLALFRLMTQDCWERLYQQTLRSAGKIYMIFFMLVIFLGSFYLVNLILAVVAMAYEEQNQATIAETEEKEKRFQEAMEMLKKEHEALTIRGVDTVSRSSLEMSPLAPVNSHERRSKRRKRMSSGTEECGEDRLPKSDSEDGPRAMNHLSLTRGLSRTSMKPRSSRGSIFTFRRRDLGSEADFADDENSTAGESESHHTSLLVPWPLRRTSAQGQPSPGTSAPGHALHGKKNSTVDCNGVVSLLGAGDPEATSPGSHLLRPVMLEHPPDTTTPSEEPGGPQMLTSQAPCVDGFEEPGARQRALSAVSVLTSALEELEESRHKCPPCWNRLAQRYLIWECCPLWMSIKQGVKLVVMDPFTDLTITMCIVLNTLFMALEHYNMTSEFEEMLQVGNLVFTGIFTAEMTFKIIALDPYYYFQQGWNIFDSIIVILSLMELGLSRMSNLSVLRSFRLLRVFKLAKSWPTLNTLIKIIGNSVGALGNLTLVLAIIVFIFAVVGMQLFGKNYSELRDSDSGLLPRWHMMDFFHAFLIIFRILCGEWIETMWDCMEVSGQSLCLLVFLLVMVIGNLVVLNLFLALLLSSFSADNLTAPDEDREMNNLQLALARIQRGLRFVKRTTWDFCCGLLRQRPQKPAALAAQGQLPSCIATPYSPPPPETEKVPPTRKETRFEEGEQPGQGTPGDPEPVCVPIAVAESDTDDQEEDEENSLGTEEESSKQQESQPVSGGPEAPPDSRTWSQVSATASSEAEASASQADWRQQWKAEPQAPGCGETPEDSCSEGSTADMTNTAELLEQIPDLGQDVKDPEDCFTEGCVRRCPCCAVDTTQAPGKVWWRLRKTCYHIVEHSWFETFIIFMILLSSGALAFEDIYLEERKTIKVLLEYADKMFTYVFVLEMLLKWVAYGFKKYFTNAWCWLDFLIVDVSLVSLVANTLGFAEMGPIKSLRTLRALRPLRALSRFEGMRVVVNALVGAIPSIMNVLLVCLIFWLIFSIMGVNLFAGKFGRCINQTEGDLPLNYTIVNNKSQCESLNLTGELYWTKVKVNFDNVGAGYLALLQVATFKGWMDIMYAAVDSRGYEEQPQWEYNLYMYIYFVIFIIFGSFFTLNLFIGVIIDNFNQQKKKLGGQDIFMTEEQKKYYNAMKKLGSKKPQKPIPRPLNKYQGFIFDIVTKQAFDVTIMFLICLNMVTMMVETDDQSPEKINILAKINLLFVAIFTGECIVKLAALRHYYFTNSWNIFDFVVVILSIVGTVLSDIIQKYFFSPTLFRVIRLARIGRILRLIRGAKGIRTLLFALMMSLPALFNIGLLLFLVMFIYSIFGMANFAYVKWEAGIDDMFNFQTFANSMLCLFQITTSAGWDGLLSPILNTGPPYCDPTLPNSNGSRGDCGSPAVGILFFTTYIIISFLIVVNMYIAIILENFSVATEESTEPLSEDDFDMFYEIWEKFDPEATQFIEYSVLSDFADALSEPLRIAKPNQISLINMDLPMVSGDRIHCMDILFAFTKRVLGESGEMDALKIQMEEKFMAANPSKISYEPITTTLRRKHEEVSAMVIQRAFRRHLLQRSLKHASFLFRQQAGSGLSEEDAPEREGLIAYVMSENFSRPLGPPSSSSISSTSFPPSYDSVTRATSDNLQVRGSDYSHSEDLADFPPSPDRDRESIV

FC(F)(F)Oc1ccc(-c2ccc3onc(OCc4ncccn4)c3c2)cc1 [Example 1, 3-(pyrimidin-2-ylmethoxy)-5-(4-(trifluoromethoxy)phenyl)benzo[d]isoxazole]
inhibition at 0.3 µM [1]: 55% | inhibition at 1 µM [1]: 66.2% | Plasma concentration [2]: 1000 nM

FC(F)(F)Oc1ccc(-c2ccc3onc(OCc4nnc(C5CC5)o4)c3c2)cc1 [Example 96, 3-((5-cyclopropyl-1,3,4-oxadiazol-2-yl)methoxy)-5-(4-(trifluoromethoxy)phenyl)benzo[d]isoxazole]
inhibition at 3 µM [3, 4]: 29.4% | inhibition at 3 µM [3, 5]: < 5% | inhibition at 0.3 µM [1]: 21.1% | inhibition at 1 µM [1]: 59.2% | Plasma concentration [2]: 1000 nM

O=C1CCCN1CCOc1noc2ccc(-c3ccc(OC(F)(F)F)cc3)cc12 [Example 59, 1-(2-((5-(4-(trifluoromethoxy)phenyl)benzo[d]isoxazol-3-yl)oxy)ethyl)pyrrolidin-2-one]
inhibition at 3 µM [3, 4]: 19% | inhibition at 3 µM [3, 5]: < 5% | inhibition at 0.3 µM [1]: 43.7% | inhibition at 1 µM [1]: 60.4% | Plasma concentration [2]: 1300 nM

FC(F)(F)Oc1ccc(-c2ccc3onc(OCCn4cncn4)c3c2)cc1 [Example 58, 3-(2-(1H-1,2,4-triazol-1-yl)ethoxy)-5-(4-(trifluoromethoxy)phenyl)benzo[d]isoxazole]
inhibition at 3 µM [3, 4]: 22.2% | inhibition at 3 µM [3, 5]: < 5% | inhibition at 0.3 µM [1]: 36.7% | inhibition at 1 µM [1]: 55% | Plasma concentration [2]: 1300 nM

Cc1ccnc(COc2noc3ccc(-c4ccc(OC(F)(F)F)cc4)cc23)n1 [Example 5, 3-((4-methylpyrimidin-2-yl)methoxy)-5-(4-(trifluoromethoxy)phenyl)benzo[d]isoxazole]
inhibition at 3 µM [3, 4]: 18% | inhibition at 3 µM [3, 5]: < 5% | inhibition at 0.3 µM [1]: 38.2% | inhibition at 1 µM [1]: 54.5% | Plasma concentration [2]: 1400 nM

Fc1cc(C(F)(F)F)ccc1-c1ccc2onc(OCc3ncccn3)c2c1 [Example 6, 5-(2-fluoro-4-(trifluoromethyl)phenyl)-3-(pyrimidin-2-ylmethoxy)benzo[d]isoxazole]
inhibition at 3 µM [3, 4]: 29.8% | inhibition at 3 µM [3, 5]: 12.6% | inhibition at 1 µM [1]: 51.1% | Plasma concentration [2]: 800 nM

CCN(CC)C(=O)COc1noc2ccc(-c3ccc(OC(F)(F)F)cc3)cc12 [Example 150, N,N-diethyl-2-((5-(4-(trifluoromethoxy)phenyl)benzo[d]isoxazol-3-yl)oxy)acetamide]
inhibition at 3 µM [3, 4]: 58.5% | inhibition at 3 µM [3, 5]: 9.3% | inhibition at 0.3 µM [1]: 49.4% | inhibition at 1 µM [1]: 68.2%

CC(C)(C)OC(=O)N1CCOC[C@H]1COc1noc2ccc(-c3ccc(OC(F)(F)F)cc3)cc12 [Example 111, tert-butyl(S)-3-(((5-(4-(trifluoromethoxy)phenyl)benzo[d]isoxazol-3-yl)oxy)methyl)morpholine-4-carboxylate]
inhibition at 3 µM [3, 4]: < 5% | inhibition at 3 µM [3, 5]: 7.3% | inhibition at 1 µM [1]: 35.1%

CC(C)c1nnc(COc2noc3ccc(-c4ccc(OC(F)(F)F)cc4)cc23)o1 [Example 100, 3-((5-isopropyl-1,3,4-oxadiazol-2-yl)methoxy)-5-(4-(trifluoromethoxy)phenyl)benzo[d]isoxazole]
inhibition at 3 µM [3, 4]: 23.5% | inhibition at 3 µM [3, 5]: < 5% | inhibition at 0.3 µM [1]: 31.7% | inhibition at 1 µM [1]: 61.9%

Fc1cc(-c2ccc(OC(F)(F)F)cc2)cc2c(OCc3nnc(C4CC4)o3)noc12 [Example 104, 3-((5-cyclopropyl-1,3,4-oxadiazol-2-yl)methoxy)-7-fluoro-5-(4-(trifluoromethoxy)phenyl)benzo[d]isoxazole]
inhibition at 3 µM [3, 4]: 23.6% | inhibition at 3 µM [3, 5]: 19.8% | inhibition at 1 µM [1]: 38.6%

COCCOc1noc2ccc(-c3ccc(OC(F)(F)F)cc3)cc12 [Example 60, 3-(2-methoxyethoxy)-5-(4-(trifluoromethoxy)phenyl)benzo[d]isoxazole]
inhibition at 3 µM [3, 4]: 30.6% | inhibition at 3 µM [3, 5]: < 5% | inhibition at 0.3 µM [1]: 16.8% | inhibition at 1 µM [1]: 57.2%

FC(F)(F)Oc1ccc(-c2ccc3onc(Oc4ncccn4)c3c2)cc1 [Example 124, 3-(pyrimidin-2-yloxy)-5-(4-(trifluoromethoxy)phenyl)benzo[d]isoxazole]
inhibition at 3 µM [3, 4]: 49.9% | inhibition at 3 µM [3, 5]: < 5% | inhibition at 1 µM [1]: 53.7%

FC(F)(F)Oc1ccc(-c2ccc3onc(NCC4CC4)c3c2)cc1 [Example 128, N-(cyclopropylmethyl)-5-(4-(trifluoromethoxy)phenyl)benzo[d]isoxazol-3-amine]
inhibition at 3 µM [3, 4]: 17.3% | inhibition at 3 µM [3, 5]: < 5% | inhibition at 1 µM [1]: 42%

CN1CCN(c2noc3ccc(-c4ccc(OC(F)(F)F)cc4)cc23)CC1 [Example 127, 3-(4-methylpiperazin-1-yl)-5-(4-(trifluoromethoxy)phenyl)benzo[d]isoxazole]
inhibition at 3 µM [3, 4]: 23.7% | inhibition at 3 µM [3, 5]: 25.1% | inhibition at 1 µM [1]: 37.4%

O=C(COc1noc2ccc(-c3ccc(OC(F)(F)F)cc3)cc12)N1CCCC1 [Example 121, 1-(pyrrolidin-1-yl)-2-((5-(4-(trifluoromethoxy)phenyl)benzo[d]isoxazol-3-yl)oxy)ethan-1-one]
inhibition at 3 µM [3, 4]: 79% | inhibition at 3 µM [3, 5]: 23.4% | inhibition at 0.3 µM [1]: 39% | inhibition at 1 µM [1]: 77.7%

FC(F)(F)c1ccc(-c2ccc3onc(OCc4ncccn4)c3c2)cc1 [Example 9, 3-(pyrimidin-2-ylmethoxy)-5-(4-(trifluoromethyl)phenyl)benzo[d]isoxazole]
inhibition at 3 µM [3, 4]: 41.3% | inhibition at 3 µM [3, 5]: 10.3% | inhibition at 0.3 µM [1]: 36.4% | inhibition at 1 µM [1]: 58.9%

COc1ccnc(CNc2noc3ccc(-c4ccc(OC(F)(F)F)cc4)cc23)n1 [Example 149, N-((4-methoxypyrimidin-2-yl)methyl)-5-(4-(trifluoromethoxy)phenyl)benzo[d]isoxazol-3-amine]
inhibition at 3 µM [3, 4]: 86.4% | inhibition at 3 µM [3, 5]: < 5% | inhibition at 0.3 µM [1]: 50.9% | inhibition at 1 µM [1]: 87.6%
